Test results: patent US20210386505A1, “BACTERIAL BIOFILM STAINING DEVICE AND METHODS OF USE” (University of Utah Research Foundation, priority 2020, published 2021)

Key:
[1] = system: Pseudomonas aeruginosa (ATCC 27853) biofilms; experiment: Transmission light photometry of MB bound to stained biofilms; assay type: cell-based; settings: P. aeruginosa biofilm, 0.01% MB, 5 min stain, n=6
Procedure: (§1) Staphylococcus aureus (ATCC 6538) and Pseudomonas aeruginosa (ATCC 27853) biofilms were grown for the respective experiments (2 days) in a CBR 90 CDC biofilm reactor (BioSurface Technologies Corporation, Bozeman, Mont.) on either titanium, cobalt chromium, polyether ether ketone (PEEK), and polyethylene (PE) coupons using previously established methods. Briefly, a 0.5 McFarland standard (˜7.5×10^7 colony forming units (CFU)) was made from a 24 hour tryptic soy agar plate culture; 1 mL was then used to inoculate 500 mL of 100% Brain Heart Infusion (BHI) broth in the biofilm reactor. The reactor and its contents were incubated at 34° C. on a hot plate with baffle rotation for 24 hours. […] Quantification of biofilm bioburden was performed on representative coupons from each reactor by dispersing the respective biofilm into 2 mL of fresh 1× phosphate buffered saline (PBS) following an established protocol: sequentially vortexing for 1 minute, sonicating for 10 minutes and vortexing […]. The CFUs were calculated by 10-fold serial dilution plating and colony counting. […]
(§2) Transmission photometry was used to determine the amount of MB bound to biofilms grown and stained using the above protocols. […] The exposure was fixed for all images analyzed; ambient light sources were eliminated by darkening the room. […]

[2] = system: Staphylococcus aureus (ATCC 6538) biofilms; experiment: as above; assay type: cell-based; settings: S. aureus biofilm, 0.01% MB, 5 min stain, n=6
Procedure: as §1, §2

[3] = system: P. aeruginosa biofilms; experiment: Visual MB staining of biofilms on orthopedic coupons, confirmed by SEM; assay type: cell-based, Pseudomonas aeruginosa; settings: P. aeruginosa biofilms on titanium, cobalt chromium, polyethylene, PEEK coupons; dilute MB
Procedure: (§3) Staphylococcus aureus (ATCC 6538) and Pseudomonas aeruginosa (ATCC 27853) biofilms were grown for the respective experiments (2 days) in a CBR 90 CDC biofilm reactor (BioSurface Technologies Corporation, Bozeman, Mont.) on either titanium, cobalt chromium, polyether ether ketone (PEEK), and polyethylene (PE) coupons using previously established methods. Briefly, a 0.5 McFarland standard (˜7.5×10^7 colony forming units (CFU)) was made from a 24 hour tryptic soy agar plate culture; 1 mL was then used to inoculate 500 mL of 100% Brain Heart Infusion (BHI) broth in the biofilm reactor. The reactor and its contents were incubated at 34° C. on a hot plate with baffle rotation for 24 hours. After 24 hours, the reactor was flushed continuously with 10% BHI at 6.94 mL/min for the subsequent 24 hours. Prior to subsequent work, the biofilm coupons were removed aseptically and rinsed in PBS. Quantification of biofilm bioburden was performed on representative coupons from each reactor by dispersing the respective biofilm into 2 mL of fresh 1× phosphate buffered saline (PBS) following an established protocol: sequentially vortexing for 1 minute, sonicating for 10 minutes and vortexing […]. The CFUs were calculated by 10-fold serial dilution plating and colony counting. […]

[4] = system: S. aureus biofilms; experiment: as above; assay type: cell-based, Staphylococcus aureus; settings: S. aureus biofilms on titanium, cobalt chromium, polyethylene, PEEK coupons; dilute MB
Procedure: as §3

CN(C)c1ccc2nc3ccc(=[N+](C)C)cc-3sc2c1 [MB, methylene blue]
number of MB molecules per CFU [1]: 2.84×10^7 molecules/CFU | number of MB molecules per CFU [2]: 6.95×10^6 molecules/CFU | visual staining of biofilm [3]: visually turned blue | visual staining of biofilm [4]: visually turned blue
